Columns and labels:
Conditions in all cases: exposure: 5-72 hpf
[1] = tested on: Danio rerio embryo (fli1:egfp); assay: heart rate at 72 hpf (beats per minute); higher = faster heart rate
Description: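 fli1:egfp zebrafish embryos exposed 5-72 hpf to chemical (0.05-50 µM, 0.1% DMSO) in 384-well plates; heart rate at 72 hpf quantified from stream acquisitions by semi-automated MetaXpress journal (peak counting); only embryos in concentrations passing survival/body-length criteria analyzed.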

[2] = tested on: Danio rerio embryo (fli1:egfp); assay: body length at 72 hpf (µm); higher = longer body (less growth inhibition)
Description: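 Transgenic fli1:egfp zebrafish embryos (one per well, 384-well plate) exposed statically from 5 to 72 hpf at 28 °C to chemical (0.05-50 µM, 0.1% DMSO); at 72 hpf anesthetized and imaged on ImageXpress; body length of live, hatched, correctly oriented embryos measured by automated MetaXpress journal. Dead/unhatched/misoriented embryos have no value.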

[3] = tested on: Danio rerio embryo (fli1:egfp); assay: pericardial area at 72 hpf (image area units (not stated)); higher = larger pericardial area (edema)
Description: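 fli1:egfp zebrafish embryos exposed 5-72 hpf to chemical (0.05-50 µM, 0.1% DMSO); pericardial area at 72 hpf measured by semi-automated MetaXpress journal (increase indicates edema).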

[4] = tested on: Danio rerio embryo (fli1:egfp); assay: arterial (dorsal aorta) circulation score at 72 hpf (normalized DA-Max (arbitrary units)); higher = more circulation
Description: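 fli1:egfp zebrafish embryos exposed 5-72 hpf to chemical (0.05-50 µM, 0.1% DMSO); arterial circulation at 72 hpf quantified from stream acquisitions of the dorsal aorta by FFT-based analysis (DA-Max, normalized dorsal aorta signal); only concentrations passing survival/body-length criteria analyzed.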

[5] = tested on: Danio rerio embryo (fli1:egfp); assay: intersegmental vessel area normalized to body length at 72 hpf (ISV area / body length (normalized units)); higher = more vessel area
Description: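 fli1:egfp zebrafish embryos exposed 5-72 hpf to chemical (0.05-50 µM, 0.1% DMSO); intersegmental vessel (ISV) eGFP area quantified by MetaXpress journal at 72 hpf and normalized to body length.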

Cc1nn(-c2cc(NS(C)(=O)=O)c(Cl)cc2Cl)c(=O)n1C(F)F [Sulfentrazone]
Conditions | arterial, [4] | body length at 72 hpf, [2] | heart rate at 72 hpf, [1] | intersegmental vessel area normalized, [5] | pericardial area at 72 hpf, [3]
0.05 µM | 11.4 | 3000 | 156 | 77.2 | 17900
0.098 µM | 11.7 | 2990 | 158 | 76.8 | 16100
0.195 µM | 12.6 | 2990 | 158 | 71.2 | 16300
0.39 µM | 9.83 | 2970 | 157 | 72.4 | 15600
0.78 µM | 11.3 | 2920 | 161 | 78.9 | 16100
1.56 µM | 8.91 | 2930 | 163 | 72.4 | 18600
3.125 µM | 8.71 | 2970 | 162 | 71.4 | 17200
6.25 µM | 8.86 | 3030 | 167 | 69.7 | 20400
12.5 µM | 7.1 | 3020 | 170 | 74.8 | 18700
25 µM | 11.1 | 2970 | 169 | 71.2 | 21700
50 µM | 5.34 | 2950 | 173 | 71.2 | 21200

CCOC(=O)C(Cl)Cc1cc(-n2nc(C)n(C(F)F)c2=O)c(F)cc1Cl (stereo not drawn) [Carfentrazone-ethyl]
Conditions | arterial, [4] | body length at 72 hpf, [2] | heart rate at 72 hpf, [1] | intersegmental vessel area normalized, [5] | pericardial area at 72 hpf, [3]
0.05 µM | 13.5 | 2950 | 186 | 53.3 | 13800
0.098 µM | 13.1 | 2970 | 172 | 55.6 | 15600
0.195 µM | 14.4 | 2980 | 187 | 64.4 | 15200
0.39 µM | 12.6 | 2990 | 190 | 61.5 | 17900
0.78 µM | 12.8 | 3030 | 194 | 65.4 | 17700
1.56 µM | 11.6 | 2950 | 186 | 56.7 | 18200
3.125 µM | 8.55 | 2940 | 190 | 64.7 | 19600
6.25 µM | 8.33 | 2970 | 184 | 67.9 | 25600

CC(C)[C@H](C(=O)O[C@H](C#N)c1cccc(Oc2ccccc2)c1)c1ccc(Cl)cc1 [Esfenvalerate]
Conditions | arterial, [4] | body length at 72 hpf, [2] | heart rate at 72 hpf, [1] | intersegmental vessel area normalized, [5] | pericardial area at 72 hpf, [3]
0.05 µM | 9.88 | 3070 | 184 | 72.5 | 14800
0.098 µM | 10.8 | 3140 | 182 | 76.8 | 16600
0.195 µM | 10.1 | 3150 | 196 | 76.2 | 14700
0.39 µM | 10.9 | 3090 | 198 | 76.1 | 15300
0.78 µM | 10.1 | 3140 | 195 | 75.7 | 15800
1.56 µM | 10.3 | 3160 | 194 | 63.9 | 15900
3.125 µM | 13.2 | 2970 | 188 | 88.9 | 14100
6.25 µM | 11.9 | 2830 | 188 | 88.2 | 14600
12.5 µM | – | 2760 | – | – | –
25 µM | – | 2640 | – | – | –
50 µM | – | 2750 | – | – | –

C[C@@]1(c2ccc(Oc3ccccc3)cc2)OC(=O)N(Nc2ccccc2)C1=O (racemic) [Famoxadone]
Conditions | arterial, [4] | body length at 72 hpf, [2] | heart rate at 72 hpf, [1] | intersegmental vessel area normalized, [5] | pericardial area at 72 hpf, [3]
0.05 µM | 15.7 | 2980 | 172 | 72.5 | 13400
0.098 µM | 14.7 | 2990 | 180 | 84.9 | 13700
0.195 µM | 14.5 | 2970 | 188 | 77.8 | 13500
0.39 µM | 12.7 | 2970 | 177 | 75.4 | 12100
0.78 µM | 14.9 | 2940 | 160 | 80 | 15500

CO/N=C(/C(=O)OC)c1ccccc1CO/N=C(\C)c1cccc(C(F)(F)F)c1 [Trifloxystrobin]
Conditions | arterial, [4] | body length at 72 hpf, [2] | heart rate at 72 hpf, [1] | intersegmental vessel area normalized, [5] | pericardial area at 72 hpf, [3]
0.05 µM | 12.1 | 2950 | 172 | 71 | 12800
0.098 µM | 11.6 | 3060 | 171 | 73.5 | 10600
0.195 µM | 15.7 | 3030 | 167 | 70.2 | 12300
0.39 µM | 15 | 2970 | 173 | 67.6 | 12200
0.78 µM | 14.9 | 3000 | 166 | 68.9 | 13900

Source: the supplement of paper PMC4121296
